Assay results taken from patent publication US12077503B2, “Substituted cyclic amides and their use as herbicides” (FMC CORPORATION, priority 2015, dated 2024).

Legend:
Assay type in all cases: in vivo
[1] = test system: giant foxtail (Setaria faberi); test: Test G Post-Emergence Protocol; conditions: Setaria faberi, post-emergence, 312 h; for pest or weed control at 15.625 g/ha: 15.625 g ai/ha, evaluated after 13 days (100=total damage to plant; 0=no damage to plant), read-out: Foxtail, Giant damage rating; for pest or weed control at 62.5 g/ha: 62.5 g ai/ha, read-out: Foxtail, Giant damage rating (100=total damage to plant; 0=no damage to plant); for pest or weed control at 62.5 g/ha / pest or weed control at 250 g/ha: evaluated after 13 days; for pest or weed control at 250 g/ha: 250 g ai/ha, read-out: damage to plant, Foxtail, Giant (100=total damage to plant; 0=no damage to plant)
Outline: (§1)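 Values are percent visual injury at 13 days after treatment (0 none, 100 total). Treatment was a post-emergence spray at 15.625, 62.5 or 250 g/ha on 8-day-old pot plants kept at 24/16 °C.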

[2] = test system: velvetleaf (Abutilon theophrasti); test: Test G Post-Emergence Protocol; conditions: Abutilon theophrasti, post-emergence, 312 h; for pest or weed control at 15.625 g/ha: 15.625 g ai/ha, evaluated after 13 days (100=total damage to plant; 0=no damage to plant), read-out: Velvetleaf damage rating; for pest or weed control at 62.5 g/ha: 62.5 g ai/ha, read-out: Velvetleaf damage rating (100=total damage to plant; 0=no damage to plant); for pest or weed control at 62.5 g/ha / pest or weed control at 250 g/ha: evaluated after 13 days; for pest or weed control at 250 g/ha: 250 g ai/ha, read-out: damage to plant, Velvetleaf (100=total damage to plant; 0=no damage to plant)
Outline: as §1

corn (Zea mays) [3] = test: Test G Post-Emergence Protocol; conditions: Zea mays, post-emergence, 312 h; for plant injury at 15.625 g/ha: 15.625 g ai/ha, evaluated after 13 days (100=total damage to plant; 0=no damage to plant), read-out: Corn damage rating; for plant injury at 62.5 g/ha: 62.5 g ai/ha, read-out: Corn damage rating (100=total damage to plant; 0=no damage to plant); for plant injury at 62.5 g/ha / plant injury at 250 g/ha: evaluated after 13 days; for plant injury at 250 g/ha: 250 g ai/ha, read-out: damage to plant, Corn (100=total damage to plant; 0=no damage to plant)
Outline: as §1

[4] = test system: barnyardgrass (Echinochloa crus-galli); test: Test G Post-Emergence Protocol; conditions: Echinochloa crus-galli, post-emergence, 312 h; for pest or weed control at 15.625 g/ha: 15.625 g ai/ha, evaluated after 13 days (100=total damage to plant; 0=no damage to plant), read-out: Barnyardgrass damage rating; for pest or weed control at 62.5 g/ha: 62.5 g ai/ha, read-out: Barnyardgrass damage rating (100=total damage to plant; 0=no damage to plant); for pest or weed control at 62.5 g/ha / pest or weed control at 250 g/ha: evaluated after 13 days; for pest or weed control at 250 g/ha: 250 g ai/ha, read-out: damage to plant, Barnyardgrass (100=total damage to plant; 0=no damage to plant)
Outline: as §1

[5] = test system: ivy-leaved morning glory (Ipomoea hederacea); test: Test G Post-Emergence Protocol; conditions: Ipomoea, post-emergence, 312 h; for pest or weed control at 15.625 g/ha: 15.625 g ai/ha, evaluated after 13 days (100=total damage to plant; 0=no damage to plant), read-out: Morningglory, Ivy-leaved damage rating; for pest or weed control at 62.5 g/ha: 62.5 g ai/ha, read-out: Morningglory, Ivy-leaved damage rating (100=total damage to plant; 0=no damage to plant); for pest or weed control at 62.5 g/ha / pest or weed control at 250 g/ha: evaluated after 13 days; for pest or weed control at 250 g/ha: 250 g ai/ha, read-out: damage to plant, Morningglory, Ivy-leaved (100=total damage to plant; 0=no damage to plant)
Outline: as §1

[6] = test system: redroot pigweed (Amaranthus retroflexus); test: Test G Post-Emergence Protocol; conditions: Amaranthus retroflexus, post-emergence, 312 h; for pest or weed control at 15.625 g/ha: 15.625 g ai/ha, evaluated after 13 days (100=total damage to plant; 0=no damage to plant), read-out: Pigweed, Redroot damage rating; for pest or weed control at 62.5 g/ha: 62.5 g ai/ha, read-out: Pigweed, Redroot damage rating (100=total damage to plant; 0=no damage to plant); for pest or weed control at 62.5 g/ha / pest or weed control at 250 g/ha: evaluated after 13 days; for pest or weed control at 250 g/ha: 250 g ai/ha, read-out: damage to plant, Pigweed, Redroot (100=total damage to plant; 0=no damage to plant)
Outline: as §1

[7] = test system: giant foxtail (Setaria faberi); test: Test G Pre-Emergence Protocol; conditions: Setaria faberi, pre-emergence, 312 h, evaluated after 13 days; for pest or weed control at 15.625 g/ha: 15.625 g ai/ha; for pest or weed control at 15.625 g/ha / pest or weed control at 250 g/ha: read-out: Foxtail, Giant damage rating (100=total damage to plant; 0=no damage to plant); for pest or weed control at 62.5 g/ha: 62.5 g ai/ha, 100=total damage to plant, 0=no damage to plant, read-out: plant damage rating, Foxtail, Giant; for pest or weed control at 250 g/ha: 250 g ai/ha
Outline: (§2)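 Seeds were sown in standard soil and kept one day in a glasshouse (24/16° C day/night, 14 h light, 65% humidity), then sprayed with compound in acetone/water (50:50) containing 0.5% Tween 20 at 15.625, 62.5 or 250 g/ha. Damage was scored after 13 days (0 = none, 100 = total).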

[8] = test system: velvetleaf (Abutilon theophrasti); test: Test G Pre-Emergence Protocol; conditions: Abutilon theophrasti, pre-emergence, 312 h, evaluated after 13 days; for pest or weed control at 15.625 g/ha: 15.625 g ai/ha; for pest or weed control at 15.625 g/ha / pest or weed control at 250 g/ha: read-out: Velvetleaf damage rating (100=total damage to plant; 0=no damage to plant); for pest or weed control at 62.5 g/ha: 62.5 g ai/ha, 100=total damage to plant, 0=no damage to plant, read-out: plant damage rating, Velvetleaf; for pest or weed control at 250 g/ha: 250 g ai/ha
Outline: as §2

corn (Zea mays) [9] = test: Test G Pre-Emergence Protocol; conditions: Zea mays, pre-emergence, 312 h, evaluated after 13 days; for plant injury at 15.625 g/ha: 15.625 g ai/ha; for plant injury at 15.625 g/ha / plant injury at 250 g/ha: read-out: Corn damage rating (100=total damage to plant; 0=no damage to plant); for plant injury at 62.5 g/ha: 62.5 g ai/ha, 100=total damage to plant, 0=no damage to plant, read-out: plant damage rating, Corn; for plant injury at 250 g/ha: 250 g ai/ha
Outline: as §2

[10] = test system: barnyardgrass (Echinochloa crus-galli); test: Test G Pre-Emergence Protocol; conditions: Echinochloa crus-galli, pre-emergence, 312 h, evaluated after 13 days; for pest or weed control at 15.625 g/ha: 15.625 g ai/ha, read-out: Barnyard grass damage rating (100=total damage to plant; 0=no damage to plant); for pest or weed control at 62.5 g/ha: 62.5 g ai/ha, 100=total damage to plant, 0=no damage to plant, read-out: plant damage rating, Barnyardgrass; for pest or weed control at 250 g/ha: 250 g ai/ha, read-out: Barnyardgrass damage rating (100=total damage to plant; 0=no damage to plant)
Outline: as §2

[11] = test system: ivy-leaved morning glory (Ipomoea hederacea); test: Test G Pre-Emergence Protocol; conditions: Ipomoea, pre-emergence, 312 h, evaluated after 13 days; for pest or weed control at 15.625 g/ha: 15.625 g ai/ha, read-out: Morning-glory, Ivy-leaved damage rating (100=total damage to plant; 0=no damage to plant); for pest or weed control at 62.5 g/ha: 62.5 g ai/ha, 100=total damage to plant, 0=no damage to plant, read-out: plant damage rating, Morningglory, Ivy-leaved; for pest or weed control at 250 g/ha: 250 g ai/ha, read-out: Morningglory, Ivy-leaved damage rating (100=total damage to plant; 0=no damage to plant)
Outline: as §2

[12] = test system: redroot pigweed (Amaranthus retroflexus); test: Test G Pre-Emergence Protocol; conditions: Amaranthus retroflexus, pre-emergence, 312 h, evaluated after 13 days; for pest or weed control at 15.625 g/ha: 15.625 g ai/ha; for pest or weed control at 15.625 g/ha / pest or weed control at 250 g/ha: read-out: Pigweed, Redroot damage rating (100=total damage to plant; 0=no damage to plant); for pest or weed control at 62.5 g/ha: 62.5 g ai/ha, 100=total damage to plant, 0=no damage to plant, read-out: plant damage rating, Pigweed, Redroot; for pest or weed control at 250 g/ha: 250 g ai/ha
Outline: as §2

| Compound | pest or weed control at 15.625 g/ha [1] [%] | pest or weed control at 62.5 g/ha [1] [%] | pest or weed control at 250 g/ha [1] [%] | pest or weed control at 15.625 g/ha [2] [%] | pest or weed control at 62.5 g/ha [2] [%] | pest or weed control at 250 g/ha [2] [%] | plant injury at 15.625 g/ha (corn (Zea mays) [3]) [%] | plant injury at 62.5 g/ha (corn (Zea mays) [3]) [%] | plant injury at 250 g/ha (corn (Zea mays) [3]) [%] | pest or weed control at 15.625 g/ha [4] [%] | pest or weed control at 62.5 g/ha [4] [%] | pest or weed control at 250 g/ha [4] [%] | pest or weed control at 15.625 g/ha [5] [%] | pest or weed control at 62.5 g/ha [5] [%] | pest or weed control at 250 g/ha [5] [%] | pest or weed control at 15.625 g/ha [6] [%] | pest or weed control at 62.5 g/ha [6] [%] | pest or weed control at 250 g/ha [6] [%] | pest or weed control at 15.625 g/ha [7] [%] | pest or weed control at 62.5 g/ha [7] [%] | also measured |
| --- | --- | --- | --- | --- | --- | --- | --- | --- | --- | --- | --- | --- | --- | --- | --- | --- | --- | --- | --- | --- | --- |
| CN1C[C@@H](c2ccc(C(F)(F)F)nc2)[C@H](C(=O)Nc2ccccc2S(C)(=O)=O)C1=O (racemic) [Compound 1586] | 0 | 0 | 70 | 0 | 10 | 10 | 0 | 0 | 30 | 0 | 0 | 50 | 0 | 0 | 40 | 0 | 0 | 40 | 0 | 20 | pest or weed control at 250 g/ha [7]: 70%; pest or weed control at 15.625 g/ha [8]: 0%; pest or weed control at 62.5 g/ha [8]: 0%; pest or weed control at 250 g/ha [8]: 30%; plant injury at 15.625 g/ha (corn (Zea mays) [9]): 0%; plant injury at 62.5 g/ha (corn (Zea mays) [9]): 10%; plant injury at 250 g/ha (corn (Zea mays) [9]): 30%; pest or weed control at 15.625 g/ha [10]: 0%; pest or weed control at 62.5 g/ha [10]: 0%; pest or weed control at 250 g/ha [10]: 90%; pest or weed control at 15.625 g/ha [11]: 0%; pest or weed control at 62.5 g/ha [11]: 0%; pest or weed control at 250 g/ha [11]: 10%; pest or weed control at 15.625 g/ha [12]: 0%; pest or weed control at 62.5 g/ha [12]: 40%; pest or weed control at 250 g/ha [12]: 60% |
| CC(C)c1cc(NC(=O)[C@@H]2C(=O)N(C)C[C@H]2c2ccc(C(F)(F)F)cc2)[nH]n1 (racemic) [Compound 1522] | 0 | 0 | 0 | 0 | 0 | 0 | 0 | 10 | 10 | 0 | 0 | 0 | 0 | 0 | 0 | 0 | 0 | 0 | 0 | 0 | pest or weed control at 250 g/ha [7]: 0%; pest or weed control at 15.625 g/ha [8]: 0%; pest or weed control at 62.5 g/ha [8]: 0%; pest or weed control at 250 g/ha [8]: 0%; plant injury at 15.625 g/ha (corn (Zea mays) [9]): 0%; plant injury at 62.5 g/ha (corn (Zea mays) [9]): 0%; plant injury at 250 g/ha (corn (Zea mays) [9]): 0%; pest or weed control at 15.625 g/ha [10]: 0%; pest or weed control at 62.5 g/ha [10]: 0%; pest or weed control at 250 g/ha [10]: 0%; pest or weed control at 15.625 g/ha [11]: 0%; pest or weed control at 62.5 g/ha [11]: 0%; pest or weed control at 250 g/ha [11]: 0%; pest or weed control at 15.625 g/ha [12]: 0%; pest or weed control at 62.5 g/ha [12]: 0%; pest or weed control at 250 g/ha [12]: 0% |
| Cc1ccc(NC(=O)[C@@H]2C(=O)N(C)C[C@H]2c2ccc(C(F)(F)F)cc2)c(Cl)c1 (racemic) [Compound 1590] | 0 | 70 | 80 | 0 | 0 | 0 | 0 | 0 | 0 | 0 | 0 | 30 | 0 | 20 | 30 | 0 | 0 | 0 | 0 | 50 | pest or weed control at 250 g/ha [7]: 80%; pest or weed control at 15.625 g/ha [8]: 0%; pest or weed control at 62.5 g/ha [8]: 0%; pest or weed control at 250 g/ha [8]: 0%; plant injury at 15.625 g/ha (corn (Zea mays) [9]): 0%; plant injury at 62.5 g/ha (corn (Zea mays) [9]): 0%; plant injury at 250 g/ha (corn (Zea mays) [9]): 0%; pest or weed control at 15.625 g/ha [10]: 0%; pest or weed control at 62.5 g/ha [10]: 0%; pest or weed control at 250 g/ha [10]: 60%; pest or weed control at 15.625 g/ha [11]: 0%; pest or weed control at 62.5 g/ha [11]: 0%; pest or weed control at 250 g/ha [11]: 0%; pest or weed control at 15.625 g/ha [12]: 0%; pest or weed control at 62.5 g/ha [12]: 0%; pest or weed control at 250 g/ha [12]: 0% |
